Some results are limits rather than exact numbers.

The source of these data is patent publication US11635434B2, “Betaretrovirus epitopes and related methods of use” (priority 2018, dated 2023).

This test concerns intrahepatic lymphocytes (IHL). Nature of the test: IFN-γ ELISPOT of intrahepatic lymphocytes stimulated with individual HBRV peptides. In kind it is cell-based, human. An excerpt: We isolated intrahepatic lymphocytes (IHL) to increase the likelihood of finding HBRV reactive lymphocytes (FIG. 3). IHL were extracted from 5 PBC subjects and 4 LT controls, as described^58 (FIG. 4B). ELISPOT was employed to detect IFN-γ spot forming colonies (SFC) using 100,000 IHL per reaction. Individual peptides from HBRV GAG and Env (immunosuppressive domains (ISD) peptides removed) were used to perform 140 analyses per sample with […] as positive and no stimulus as negative control. We found 15 GAG and 21 Env peptides that produced SFC above background levels (FIG. 6A).
Cellular immune responses have been found using pooled peptides of the HBRV Gag (n=58) and Env (n=85) proteins. […] In order to characterize immunodominant HBRV epitopes, we screened intra-hepatic lymphocytes (IHL) from PBC subjects and control subjects for evidence of IFNg production. Methods: IHL were isolated from liver transplant recipients with PBC (n=5) and other hepatic disorders (n=4). IHL were individually stimulated with 15-mer peptides from HBRV Gag or Env proteins (n=144) or the characterized CD8+ reactive epitope to pyruvate dehydrogenase-E2 (PDH-E2). ELISpot was used to measure spot forming colonies (SFC) producing IFN-g.

Regarding TIYLGGSPDFHGFRNMSG [Env 17], the “number of PBC subjects whose IHL were reactive (IFN-γ producing)” value (5 PBC subjects) is on record as 1. Moreover, the “SFC level in the reactive PBC subject's IHL” value (FIG. 6A) was less than 50 SFC.
